The source of these data is US9090610B2, “Fluoroalkyl-substituted pyrazolopyridines and use thereof” (BAYER INTELLECTUAL PROPERTY GMBH, priority 2011, dated 2015).

Assay [1] has as its system recombinant guanylate cyclase reporter cell line. The assay can be described thus: Effect on a recombinant guanylate cyclase reporter cell line. Format: cell-based. As to conditions: recombinant guanylate cyclase reporter cell line (Wunder et al. 2005); read-out: MEC (minimum effective concentration). How it is done:
B-2. Effect on a Recombinant Guanylate Cyclase Reporter Cell Line
The cellular activity of the compounds according to the invention is determined using a recombinant guanylate cyclase reporter cell line, as described in F. Wunder et al., Anal. Biochem. 339, 104-112 (2005).

In a further assay the test system is rabbit aorta rings. The assay can be described thus: Vasorelaxant action in vitro (phenylephrine-contracted rabbit aortic rings). As to conditions: Oryctolagus cuniculus, phenylephrine-induced contraction, organ bath 37° C., 0.1% DMSO, read-out: IC50 (concentration needed to reduce the magnitude of the control contraction by 50%). The method, then: B-1. Vasorelaxant Action In Vitro
Rabbits are stunned by a blow to the neck and exsanguinated. The aorta is removed, freed from adhering tissue and divided into rings of a width of 1.5 mm. The rings are placed individually under an initial tension in 5 ml organ baths with Krebs-Henseleit solution which is at 37° C., is gassed with carbogen and has the following composition (in each case mM): sodium chloride: 119; potassium chloride: 4.8; calcium chloride dihydrate: 1; magnesium sulfate heptahydrate: 1.4; potassium dihydrogenphosphate: 1.2; sodium bicarbonate: 25; glucose: 10. The contractile force is determined with Statham UC2 cells, amplified and digitalized using A/D transducers (DAS-1802 HC, Keithley Instruments Munich), and recorded in parallel on linear recorders. To obtain a contraction, phenylephrine is added to the bath cumulatively in increasing concentration. After several control cycles, the substance to be investigated is added in each further run in increasing dosage in each case, and the height of the contraction achieved is compared with the height of the contraction reached in the last preceding run. This is used to calculate the concentration needed to reduce the magnitude of the control value by 50% ([…]). The standard administration volume is 5 μl; the DMSO content in the bath solution corresponds to 0.1%.

For the compound `CC1(C)C(=O)Nc2nc(-c3nn(CCC(F)(F)C(F)(F)F)c4ncccc34)ncc21` [Example 3, 5,5-Dimethyl-2-[1-(3,3,4,4,4-pentafluorobutyl)-1H-pyrazolo[3,4-b]pyridin-3-yl]-5,7-dihydro-6H-pyrrolo[2,3-d]pyrimidin-6-one], the minimal effective concentration in assay [1] is 0.03 µM. The IC50 in the assay with rabbit aorta rings turned out to be 46 nM.

On to `CC1(C)C(=O)Nc2nc(-c3nn(CCC(F)(F)C(F)(F)F)c4ncc(F)cc34)nnc21` [Example 2, 3-[5-Fluoro-1-(3,3,4,4,4-pentafluorobutyl)-1H-pyrazolo[3,4-b]pyridin-3-yl]-7,7-dimethyl-5,7-dihydro-6H-pyrrolo[2,3-e][1,2,4]triazin-6-one], for which, in assay [1], the minimal effective concentration was 0.1 µM. Besides, the IC50 with rabbit aorta rings is 129 nM. Taken in the same sequence, the figures for `CC1(C)C(=O)Nc2nc(-c3nn(CCC(F)(F)C(F)(F)F)c4ncc(F)cc34)ncc21` [Example 4, 2-[5-Fluoro-1-(3,3,4,4,4-pentafluorobutyl)-1H-pyrazolo[3,4-b]pyridin-3-yl]-5,5-dimethyl-5,7-dihydro-6H-pyrrolo[2,3-d]pyrimidin-6-one] were 0.03 µM and 101 nM. Taken in the same sequence, the figures for `CC1(C)C(=O)Nc2nc(-c3nn(CC4CCCC4)c4ncc(F)cc34)ncc21` [Example 5, 2-[1-(Cyclopentylmethyl)-5-fluoro-1H-pyrazolo[3,4-b]pyridin-3-yl]-5,5-dimethyl-5,7-dihydro-6H-pyrrolo[2,3-d]pyrimidin-6-one] were 0.1 µM and 23 nM. For `CC1(C)C(=O)Nc2nc(-c3nn(CCC(F)(F)C(F)F)c4ncc(F)cc34)nnc21` [Example 7, 3-[5-Fluoro-1-(3,3,4,4-tetrafluorobutyl)-1H-pyrazolo[3,4-b]pyridin-3-yl]-7,7-dimethyl-5,7-dihydro-6H-pyrrolo[2,3-e][1,2,4]triazin-6-one], in assay [1], the minimal effective concentration was determined as 0.3 µM.

As for `CC1(C)C(=O)Nc2nc(-c3nn(CCC(F)(F)C(F)(F)F)c4ncccc34)nnc21` [Example 1, 7,7-Dimethyl-3-[1-(3,3,4,4,4-pentafluorobutyl)-1H-pyrazolo[3,4-b]pyridin-3-yl]-5,7-dihydro-6H-pyrrolo[2,3-e][1,2,4]triazin-6-one], the minimal effective concentration in assay [1] came out at 0.3 µM. The IC50 in the assay on rabbit aorta rings was 263 nM.

Regarding `CC1(C)C(=O)Nc2nc(-c3nn(CC4CCCC4)c4ncc(F)cc34)nnc21` [Example 6, 3-[1-(Cyclopentylmethyl)-5-fluoro-1H-pyrazolo[3,4-b]pyridin-3-yl]-7,7-dimethyl-5,7-dihydro-6H-pyrrolo[2,3-e][1,2,4]triazin-6-one], the minimal effective concentration in assay [1] came to 0.1 µM. Moreover, the IC50 with rabbit aorta rings stood at 102 nM. For `CC1(C)C(=O)Nc2nc(-c3nn(CC4CC(F)(F)C4)c4ncc(F)cc34)nnc21` [Example 8, 3-{1-[(3,3-Difluorocyclobutyl)methyl]-5-fluoro-1H-pyrazolo[3,4-b]pyridin-3-yl}-7,7-dimethyl-5,7-dihydro-6H-pyrrolo[2,3-e][1,2,4]triazin-6-one], the minimal effective concentration in assay [1] stood at 3 µM.
